These results are taken from patent US8389562B2, “Polymorphic forms of a 3-pyrrole substituted 2-indolinone” (Medichem, S.A., priority 2007, dated 2013).

Molecules are shown by their SMILES.

Data set [1] is described as follows: solubility profile of sunitinib base as observed by applicants. The format is physicochemical. To be noted: sunitinib base obtained in the prior art (Form III); qualitative observation. The text has this:
In this regard, the low solubility of sunitinib base Form III would involve the use of large amounts of suitable solvents or mixture of solvents and/or the use of particular conditions aimed to improve the solubility of sunitinib base Form III and/or long reaction times for processes using sunitinib, which may represent an important drawback, especially for processes on an industrial scale.

For data set [2] the following is noted: European Public Assessment Report provided for SUTENT; cited from earlier work.

Turning to `CCN(CC)CCNC(=O)c1c(C)[nH]c(/C=C2\C(=O)Nc3ccc(F)cc32)c1C` [sunitinib base Form III, N-[2-(diethylamino)ethyl]-5-[(Z)-(5-fluoro-1,2-dihydro-2-oxo-3H-indol-3-ylidine)methyl]-2,4-dimethyl-1H-pyrrole-3-carboxamide], in data set [1], the solubility profile result is on record as “low solubility profile”.

As for `CCN(CC)CCNC(=O)c1c(C)[nH]c(/C=C2\C(=O)Nc3ccc(F)cc32)c1C` [sunitinib, N-[2-(diethylamino)ethyl]-5-[(Z)-(5-fluoro-1,2-dihydro-2-oxo-3H-indol-3-ylidine)methyl]-2,4-dimethyl-1H-pyrrole-3-carboxamide], the “solubility class according to the biopharmaceutical classification” value in data set [2] is recorded as “low solubility compound”.
